Measurements from PubChem BioAssay (NCI).
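Values below derive from 48-hour exposures of cells grown in 96-well plates, with endpoints linearly interpolated between the two concentrations bracketing the appropriate inhibition level. Here, GI50 denotes the concentration required for 50% inhibition of growth. At the TGI there is no net growth.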

Tests used:
Experiment in all cases: growth of human tumour cells (NCI), 48 h
DU-145 prostate = tested on: DU-145 prostate
MDA-MB-435 = tested on: MDA-MB-435
PC-3 prostate = tested on: PC-3 prostate
NCI/ADR-RES ovarian = tested on: NCI/ADR-RES ovarian
LXFL 529 NSCLC = tested on: LXFL 529 NSCLC
DMS 114 small cell lung = tested on: DMS 114 small cell lung
HOP-18 NSCLC = tested on: HOP-18 NSCLC

| Compound | GI50 (DU-145 prostate) [µM] | TGI (DU-145 prostate) [µM] | GI50 (MDA-MB-435) [µM] | TGI (MDA-MB-435) [µM] | GI50 (PC-3 prostate) [µM] | TGI (PC-3 prostate) [µM] | GI50 (NCI/ADR-RES ovarian) [µM] | TGI (NCI/ADR-RES ovarian) [µM] | TGI (LXFL 529 NSCLC) [µM] | TGI (DMS 114 small cell lung) [µM] | TGI (HOP-18 NSCLC) [µM] |
| --- | --- | --- | --- | --- | --- | --- | --- | --- | --- | --- | --- |
| CCCCC[C@H]1C/C=C2/C(=O)C=C[C@@H]2C/C=C\CCCC(=O)O1 | 0.169 | 1.94 | 0.169 | 0.588 | 0.165 | 0.844 | 0.181 | 1.13 |  |  |  |
| CN(Cc1cnc2nc(N)nc(N)c2n1)c1c(Cl)cc(C(=O)NC(CCC(=O)O)C(=O)O)cc1Cl (stereo unspecified) | < 0.01 | > 100 | < 0.01 | > 100 | < 0.01 | > 100 | < 0.01 | > 100 |  |  |  |
| CCN(CC)c1ccc(/C=N/N=C(N)N)cc1 | 4.3 | 28.2 | 0.668 | 3.04 | 3.51 | 92.9 | 5.44 | 29.8 |  |  |  |
| Cc1nc(Nc2ccc(Cl)cc2)sc1C(=O)Nc1cccc2c(=O)[nH][nH]c(=O)c12 |  |  |  |  |  |  |  |  | 86.6 | 61.9 |  |
| O=C1c2ccccc2-c2c1c1ccccc1c(=O)n2CCNCCNCCNCCNCCn1c2c(c3ccccc3c1=O)C(=O)c1ccccc1-2 | 0.161 | 1.57 |  |  |  |  | > 53 | 96.9 |  |  |  |
| COc1ccc(C2=NNC(c3sc(Cl)nc3Cl)C2)cc1 (stereo unspecified) | 7.38 | 20.4 | 3.25 | 16.7 | 6.11 | 29.5 | 10.2 | > 100 |  |  |  |
| O=C(O)C(Cc1ccccc1)N1C(=O)/C(=C/C(Cl)=C/c2ccc([N+](=O)[O-])cc2)SC1=S (stereo unspecified) | 2.06 | 4.56 | 2.27 | 6 | 2.53 | 7.98 | 3.39 | > 100 |  |  |  |
| COc1cc(N)c(Cl)cc1C(=O)N[C@@H]1CCN(CCCOc2ccc(F)cc2)C[C@@H]1OC | > 100 | > 100 | > 100 | > 100 |  |  | > 100 | > 100 |  |  |  |
| Cc1cccc(C=NC23CC4CC(CC(C4)C2)C3)c1 |  |  |  |  |  |  |  |  |  | > 100 | > 100 |
| COC(=O)CCC(NC(=S)N/N=C(\C)c1cccs1)C(=O)OC (stereo unspecified) |  |  |  |  |  |  |  |  | > 100 | > 100 | > 100 |
| O=C1C(=O)N(c2cc(Cl)ccc2Cl)C(=O)C(=O)C1c1nc2ccccc2s1 |  |  |  |  |  |  |  |  | > 100 | > 100 |  |
| COc1ccc(-c2cn3ccnc3c(-c3ccc(Cl)cc3)n2)cc1 | 11.7 | > 100 | 2.56 | 8.62 | 14.5 | > 100 | 3.77 | 28.2 |  |  |  |
| C/C(=N\NC(=S)N1CCCC1)c1ccccn1 | 0.0428 | 14.8 | 0.0299 | 21.8 | < 0.01 | 16.7 | < 0.01 | 10.6 |  |  |  |
| c1ccc(C2N=C(c3ccccn3)C(c3ccccn3)=NC2c2ccccc2)cc1 (stereo unspecified) |  |  |  |  |  |  |  |  | > 100 | > 100 | > 100 |
| C[C@@H]1CC2(C[C@@H](C)C3[C@@H](CC4(C)CCCC5C6=CC(O)(CC[C@]34C)OC6=CC(=O)OC5(C)C)O2)OC1=O (stereo partly specified) |  |  |  |  |  |  |  |  | > 100 | > 100 | > 100 |
